Experimental data from patent publication US7319153B2, “6,13-Bis(thienyl)pentacene compounds” (3M Innovative Properties Company, priority 2005, dated 2008).
Read-outs that look alike come from different tables or passages of the source.

How the values were obtained:
[1] = isolation and purification; cited from earlier work
[2] = Solubility in tetrahydrofuran-d8 by proton NMR of saturated solutions; assay type: physicochemical
Method: The solubility of each compound prepared in Examples 1 to 4 was determined by the following method. The proton NMR spectra of saturated solutions of the compounds prepared in Examples 1 to 4 dissolved in tetrahydrofuran-d8 were compared with the proton NMR spectrum of a standard solution (i.e., known concentration) of the compound of Example 2, which was 2-hexyl-5-[ 13-(5-hexylthien-2-yl)pentacene-6-yl]thiophene, dissolved in tetrahydrofuran-d8. The same lot of tetrahydrofuran-d8 was used to make all of the solutions. The standard solution was prepared by dissolving 7.0 mg of the compound of Example 2 in 936 mg of tetrahydrofuran-d8 to give a 0.742 weight percent solution. Saturated solutions of the compounds of Examples 1 to 4 were prepared by placing an excess of the corresponding compound in approximately 1 mL of tetrahydrofuran-d8 and mixing for 30 minutes. The solutions were filtered and placed in an NMR tube and the corresponding proton NMR spectra were obtained.
For the standard (0.742 weight percent solution of the compound of Example 2), the NMR integration for the absorption at 8.59 ppm (the most down-field absorption corresponding to the four protons at positions 5, 7, 12 and 14) was compared to the absorption of the residual protio-tetrahydrofuran at 3.6 ppm to give a relative ratio of moles of the compound of Example 2 to moles of protio-tetrahydrofuran of 0.33. The molar ratio of the compound of Example 2 to tetrahydrofuran (protio- and deutero-) in the standard solution is 8.83×10^−4. This molar ratio (8.83×10^−4) divided by the relative ratio of moles of the compound of Example 2 to moles of protio-tetrahydrofuran (0.33) gave a factor of 2.68×10^−3. Multiplying this factor by the proton NMR integration for the saturated solutions of the corresponding compounds of Example 1 to 4 gave the ratio of moles of pentacene derivative to moles of tetrahydrofuran in the saturated solutions. This allowed the calculation of the concentrations for the various solutions of compounds of Examples 1 to 4 as shown in the table below.

[3] = Stability in tetrahydrofuran (endoperoxide formation by proton NMR); assay type: physicochemical; details: for Mole percent impurity—120 hours: endoperoxide in tetrahydrofuran-d8 after 120 hours, protected from light; for Mole percent impurity—120 hours / Mole percent increase: room temperature; for Mole percent impurity—initial: endoperoxide in tetrahydrofuran-d8 solution; for Mole percent increase: increase of endoperoxide over 120 hours in tetrahydrofuran-d8, protected from light
Method: The solution stabilities of the compounds of Examples 1 to 4 were determined by proton NMR analysis of saturated solutions of the corresponding compounds in tetrahydrofuran-d8. Comparing the proton NMR integration of the four protons at positions 5, 7, 12 and 14 (8.51 ppm to 8.69 ppm) to the integration of the four corresponding protons from the endoperoxide (the major and only detectable decomposition product, 7.93 ppm to 7.98 ppm), the percent increase of this impurity was determined for each compound. The solutions were prepared by dissolving the corresponding compound in tetrahydrofuran-d8 and the proton NMR spectra were obtained to determine the initial concentration of endoperoxide for each sample. The solutions were allowed to stand protected from light at room temperature (i.e., 20° C. to 25° C.) for 120 hours. Proton NMR spectra of the aged samples were taken and the increase in absorption of the endoperoxide was used to calculate the data shown in Table 3. The formation of the endoperoxide is shown in the following reaction for compounds of Formula II.

[4] = small quantity extracted into refluxing 1,2-dichlorobenzene; cited from earlier work
[5] = saturated solution in tetrahydrofuran-d8, mixed 30 minutes, filtered

Compound | air and light sensitivity [1] | Molarity in THF [2, 5] | Moles of compound/moles of THF [2, 5] | Weight percent in THF [2, 5] [weight percent] | Mole percent impurity—120 hours [3] [mole percent] | Mole percent impurity—initial [3] [mole percent] | Mole percent increase [3] [mole percent] | Molarity in THF [2] | Moles of compound/moles of THF [2] | time to bleaching [4]
C[Si](C)(C)c1cc2cc3cc4cc5cc([Si](C)(C)C)c([Si](C)(C)C)cc5cc4cc3cc2cc1[Si](C)(C)C [2,3,9,10-tetrakis(trimethylsilyl)pentacene] | highly air- and light-sensitive |  |  |  |  |  |  |  |  | 
c1csc(-c2c3cc4ccccc4cc3c(-c3cccs3)c3cc4ccccc4cc23)c1 [Example 1, 2-(13-thien-2-ylpentacene-6-yl)thiophene] |  | 6.58 × 10^−3 | 5.35 × 10^−4 | 0.327 | 21.26 | 5.66 | 15.60 |  |  | 
CCCCCCc1ccc(-c2c3cc4ccccc4cc3c(-c3ccc(CCCCCC)s3)c3cc4ccccc4cc23)s1 [Example 2, 2-hexyl-5-[13-(5-hexylthien-2-yl)pentacene-6-yl]thiophene] |  | 1.22 × 10^−1 | 1.08 × 10^−2 | 8.35 | 10.71 | 2.91 | 7.80 |  |  | 
C[Si](C)(C)c1ccc(-c2c3cc4ccccc4cc3c(-c3ccc([Si](C)(C)C)s3)c3cc4ccccc4cc23)s1 [Example 3, trimethyl(5-{13-[5-(trimethylsilyl)thien-2-yl]pentacen-6-yl}thien-2-yl)silane] |  | 3.54 × 10^−2 | 2.94 × 10^−3 | 2.34 | 4.76 | 1.96 | 2.80 |  |  | 
c1csc(-c2ccc(-c3c4cc5ccccc5cc4c(-c4ccc(-c5cccs5)s4)c4cc5ccccc5cc34)s2)c1 [Example 4, 5-[13-(2,2′-bithien-5-yl)pentacen-6-yl]-2,2′-bithiophene] |  |  |  | 0.135 | 6.54 | 2.91 | 3.63 | 1.98 × 10^−3 | 1.61 × 10^−4 | 
c1ccc2cc3cc4cc5ccccc5cc4cc3cc2c1 [pentacene] |  |  |  |  |  |  |  |  |  | less than 5 minutes
